Reference: patent publication US20210299082A1, “FISETIN COMPOSITION AND A METHOD OF MAKING THE SAME” (priority 2020, published 2021)
Like-named read-outs stand apart in the source and are kept apart here.

What was measured:
[1] = solubility of fisetin in water and in ethanol; assay type: physicochemical
Experimental: In one embodiment of the invention, a fisetin composition comprises fisetin and a second component that is selected from a group that comprises ethanol. The group may further comprise water. In one example, the solubility of fisetin in water is substantially 0.05 mg/mL or more, such as 0.1 mg/mL or more, 0.15 mg/mL or more, or 0.2 mg/mL. In another example, the solubility of fisetin in ethanol is substantially 2 mg/mL or more, such as 4 mg/mL or more, 6 mg/mL or more, 8 mg/mL or more, or 10 mg/mL or more.

[2] = tested on: joint pain in a person; assay: joint pain relief in a person after oral fisetin; assay type: in vivo, human; conditions: for reported joint pain: ingested 5 consecutive days
Experimental: In still another embodiment of the invention, the fisetin composition is used to relieve joint pain in a person. A person ingested fisetin (500 mg) in capsule powder form for 5 consecutive days, fisetin (500 mg) mixed in 35 mL of MCT oil for 5 consecutive days, or fisetin (500 mg) mixed in 40 mL of 40% ethanol and 60% water for 5 consecutive days, each test separated by a month. Reported joint pain decreased only after consuming fisetin in 40% ethanol and 60% water, but not the other regimens.

[3] = tested on: blood glucose level; assay: blood glucose level in a person after oral fisetin; assay type: in vivo, human
Experimental: In still another example of the embodiment, fisetin can be used to decrease blood glucose level. Fisetin (500 mg) was ingested by a person after mixing with 75 mL of 53% ethanol and 47% water for 3 consecutive days.

[4] = tested on: skin of 20 people; assay: topical skin treatment; assay type: in vivo, human; conditions: 200 mM fisetin in polyethylene glycol containing titanium nanoparticles; applied to the skin of 20 people for 2 days
Experimental: In yet another example of the invention, fisetin can be used as a topical skin treatment. Fisetin was dissolved in polyethylene glycol containing titanium nanoparticles with a resulting fisetin concentration of 200 mM. Fisetin was applied to the skin of 20 people for 2 days.

[5] = 500 mg for 5 consecutive days, regimen not specified, stated after the 40% ethanol and 60% water result
[6] = 500 mg in 75 mL of 53% ethanol and 47% water, 3 consecutive days

- solubility ([1]; in water, read-out: solubility of fisetin in water): ≥ 50 µg/mL
- solubility ([1]; organic solvent or mixture, in ethanol, read-out: solubility of fisetin in ethanol): ≥ 2000 µg/mL
SMILES: O=c1c(O)c(-c2ccc(O)c(O)c2)oc2cc(O)ccc12 [fisetin]
- energy [2, 5]: slight increase
- metabolism [2, 5]: slight increase
- weight decrease ([2]; 500 mg for 5 consecutive days, to a BMI 23.7): approximately 1 kg
- reported joint pain ([2]; 500 mg in capsule powder form): not
- reported joint pain ([2]; 500 mg mixed in 35 mL of MCT oil): not
- reported joint pain ([2]; 500 mg mixed in 40 mL of 40% ethanol and 60% water): decreased
- energy [3, 6]: slight increase
- metabolism [3, 6]: slight increase
- weight decrease ([3]; 500 mg in 75 mL of 53% ethanol and 47% water, 3 consecutive days, to a BMI 22.1): approx. 1 kg
- waking blood glucose level after the administration ([3]; 500 mg mixed with 75 mL of 53% ethanol and 47% water, 3 consecutive days, decreased from 5.7 mmol/L): 4.8 mmol/L
- muscle gain ([3]; in a month afterwards without increased exercise): slight muscle gain
- skin appearance reported by subjects [4]: improved skin appearance
